Assay results published in patent publication US20100105682A1, “CYCLOPROPYL-PIPERAZINE COMPOUNDS AS CALCIUM CHANNEL BLOCKERS” (priority 2006, published 2010).
Where two headings read alike, the source gives them in different places.

Molecular target: T1, rat brain N-type calcium channel subunits (α1B+α2δ+β1b cDNA subunits) (Rattus norvegicus, UniProt Q02294)
T1 construct: expressed in transfected cells; host or cells: HEK 293 (human embryonic kidney), stably transfected; alternatively transiently transfected
T1 sequence (Q02294 whole entry): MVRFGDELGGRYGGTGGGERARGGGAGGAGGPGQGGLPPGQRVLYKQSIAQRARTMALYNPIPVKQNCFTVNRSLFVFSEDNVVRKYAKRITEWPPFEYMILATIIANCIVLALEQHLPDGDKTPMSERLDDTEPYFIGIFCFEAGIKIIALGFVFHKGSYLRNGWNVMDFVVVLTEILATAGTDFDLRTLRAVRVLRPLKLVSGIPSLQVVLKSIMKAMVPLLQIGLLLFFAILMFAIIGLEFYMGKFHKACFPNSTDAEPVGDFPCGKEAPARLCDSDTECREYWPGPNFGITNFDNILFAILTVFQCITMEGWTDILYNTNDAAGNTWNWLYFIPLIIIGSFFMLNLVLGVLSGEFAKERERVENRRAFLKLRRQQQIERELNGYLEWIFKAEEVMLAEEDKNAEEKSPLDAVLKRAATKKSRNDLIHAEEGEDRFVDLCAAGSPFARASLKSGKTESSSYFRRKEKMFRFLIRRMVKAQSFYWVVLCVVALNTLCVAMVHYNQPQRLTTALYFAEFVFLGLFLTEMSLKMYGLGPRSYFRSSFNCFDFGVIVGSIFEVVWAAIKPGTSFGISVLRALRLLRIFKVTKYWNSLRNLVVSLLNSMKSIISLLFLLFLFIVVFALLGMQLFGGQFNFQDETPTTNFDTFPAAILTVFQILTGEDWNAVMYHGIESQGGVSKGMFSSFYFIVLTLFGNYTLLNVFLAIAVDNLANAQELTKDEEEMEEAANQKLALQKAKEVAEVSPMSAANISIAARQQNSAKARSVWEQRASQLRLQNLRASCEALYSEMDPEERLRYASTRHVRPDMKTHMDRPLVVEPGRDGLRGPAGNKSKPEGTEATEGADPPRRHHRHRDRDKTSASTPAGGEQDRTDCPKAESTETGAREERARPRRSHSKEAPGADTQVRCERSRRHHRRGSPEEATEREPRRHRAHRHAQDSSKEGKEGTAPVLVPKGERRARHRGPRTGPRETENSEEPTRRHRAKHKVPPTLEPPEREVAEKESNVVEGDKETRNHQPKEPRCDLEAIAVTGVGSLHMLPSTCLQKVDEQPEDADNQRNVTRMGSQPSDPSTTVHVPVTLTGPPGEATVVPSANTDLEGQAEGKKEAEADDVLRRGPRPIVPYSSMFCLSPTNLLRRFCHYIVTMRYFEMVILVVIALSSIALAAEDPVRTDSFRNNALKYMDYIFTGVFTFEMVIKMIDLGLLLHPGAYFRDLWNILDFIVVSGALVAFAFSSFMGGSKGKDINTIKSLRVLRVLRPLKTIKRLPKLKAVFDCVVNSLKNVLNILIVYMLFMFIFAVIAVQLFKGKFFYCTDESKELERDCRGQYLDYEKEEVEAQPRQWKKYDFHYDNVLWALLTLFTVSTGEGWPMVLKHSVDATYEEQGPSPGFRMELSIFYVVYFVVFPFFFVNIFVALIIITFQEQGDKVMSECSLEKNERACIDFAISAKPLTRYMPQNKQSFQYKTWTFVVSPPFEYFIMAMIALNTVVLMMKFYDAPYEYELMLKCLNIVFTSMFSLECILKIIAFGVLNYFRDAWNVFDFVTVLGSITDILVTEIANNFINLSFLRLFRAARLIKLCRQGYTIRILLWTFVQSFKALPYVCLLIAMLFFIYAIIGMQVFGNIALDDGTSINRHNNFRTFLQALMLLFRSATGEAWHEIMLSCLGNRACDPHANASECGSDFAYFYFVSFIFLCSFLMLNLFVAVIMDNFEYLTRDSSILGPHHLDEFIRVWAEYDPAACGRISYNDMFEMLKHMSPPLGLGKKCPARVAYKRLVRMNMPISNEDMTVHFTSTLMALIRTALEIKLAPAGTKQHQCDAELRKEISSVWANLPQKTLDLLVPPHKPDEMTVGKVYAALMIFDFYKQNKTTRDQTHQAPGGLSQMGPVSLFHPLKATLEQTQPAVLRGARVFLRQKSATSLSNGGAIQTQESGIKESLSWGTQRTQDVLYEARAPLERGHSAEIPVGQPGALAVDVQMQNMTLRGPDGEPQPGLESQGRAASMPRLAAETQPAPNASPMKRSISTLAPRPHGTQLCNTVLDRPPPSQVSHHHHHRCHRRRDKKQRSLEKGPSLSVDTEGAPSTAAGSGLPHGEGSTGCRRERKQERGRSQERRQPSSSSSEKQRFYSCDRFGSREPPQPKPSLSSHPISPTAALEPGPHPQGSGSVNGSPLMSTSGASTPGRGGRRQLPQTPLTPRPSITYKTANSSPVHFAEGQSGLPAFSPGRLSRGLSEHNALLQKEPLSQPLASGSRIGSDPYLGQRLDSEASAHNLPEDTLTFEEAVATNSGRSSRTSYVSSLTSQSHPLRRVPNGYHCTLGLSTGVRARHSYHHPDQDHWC
T1 sequence (P54290 25-944 partner limits assumed): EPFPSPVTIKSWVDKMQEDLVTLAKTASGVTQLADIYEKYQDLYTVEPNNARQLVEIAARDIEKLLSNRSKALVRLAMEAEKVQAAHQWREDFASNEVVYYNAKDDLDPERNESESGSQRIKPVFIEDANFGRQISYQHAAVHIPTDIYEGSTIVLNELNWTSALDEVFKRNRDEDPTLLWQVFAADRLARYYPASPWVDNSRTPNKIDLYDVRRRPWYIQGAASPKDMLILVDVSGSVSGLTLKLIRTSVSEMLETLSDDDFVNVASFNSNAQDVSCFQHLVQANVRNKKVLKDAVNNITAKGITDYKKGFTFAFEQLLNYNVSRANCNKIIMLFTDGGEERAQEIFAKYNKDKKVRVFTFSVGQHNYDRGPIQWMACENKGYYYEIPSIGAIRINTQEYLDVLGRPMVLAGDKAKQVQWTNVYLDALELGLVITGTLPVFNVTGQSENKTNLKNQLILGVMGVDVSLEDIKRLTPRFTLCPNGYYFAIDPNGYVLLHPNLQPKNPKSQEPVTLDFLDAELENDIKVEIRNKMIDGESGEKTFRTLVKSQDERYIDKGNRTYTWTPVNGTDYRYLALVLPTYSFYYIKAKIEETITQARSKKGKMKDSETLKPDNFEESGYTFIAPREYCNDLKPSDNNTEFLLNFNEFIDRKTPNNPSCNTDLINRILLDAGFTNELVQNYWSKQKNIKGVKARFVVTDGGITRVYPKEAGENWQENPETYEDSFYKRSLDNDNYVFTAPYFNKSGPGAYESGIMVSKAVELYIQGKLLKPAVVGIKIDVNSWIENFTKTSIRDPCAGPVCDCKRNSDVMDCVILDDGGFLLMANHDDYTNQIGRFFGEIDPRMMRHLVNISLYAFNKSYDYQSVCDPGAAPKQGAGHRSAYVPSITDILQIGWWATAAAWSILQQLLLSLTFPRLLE
T1 sequence (P54290 945-1091 partner limits assumed): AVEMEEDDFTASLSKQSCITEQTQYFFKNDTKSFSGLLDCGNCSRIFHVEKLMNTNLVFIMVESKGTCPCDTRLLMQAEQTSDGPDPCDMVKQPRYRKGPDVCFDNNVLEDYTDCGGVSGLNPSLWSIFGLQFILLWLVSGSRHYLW
T1 sequence (P54283 whole entry partner): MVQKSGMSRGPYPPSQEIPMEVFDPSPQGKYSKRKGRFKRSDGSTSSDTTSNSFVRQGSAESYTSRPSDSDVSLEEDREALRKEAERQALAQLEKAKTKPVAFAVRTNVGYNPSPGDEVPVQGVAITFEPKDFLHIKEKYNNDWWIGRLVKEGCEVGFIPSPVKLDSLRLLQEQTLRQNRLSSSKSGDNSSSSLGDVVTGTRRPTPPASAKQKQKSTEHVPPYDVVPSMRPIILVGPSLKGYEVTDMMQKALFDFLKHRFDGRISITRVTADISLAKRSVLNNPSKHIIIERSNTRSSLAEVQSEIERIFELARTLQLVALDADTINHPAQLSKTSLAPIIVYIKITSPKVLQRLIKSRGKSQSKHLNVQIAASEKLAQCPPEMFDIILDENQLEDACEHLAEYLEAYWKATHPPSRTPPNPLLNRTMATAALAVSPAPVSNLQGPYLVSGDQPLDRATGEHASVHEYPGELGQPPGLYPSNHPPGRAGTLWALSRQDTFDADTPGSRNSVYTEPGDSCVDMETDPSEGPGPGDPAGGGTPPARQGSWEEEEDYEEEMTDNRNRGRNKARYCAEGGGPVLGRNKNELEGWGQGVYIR
Assay: N-type calcium channel block, whole cell patch clamp in HEK 293 cells
Type: cell-based
Conditions: holding potential −80 mV to +10 mV
Method: N-type calcium channel blocking activity was assayed in human embryonic kidney cells, HEK 293, stably transfected with the rat brain N-type calcium channel subunits (α1B+α2δ+β1b cDNA subunits). Alternatively, N-type calcium channels (α1B+α2δ+β1b cDNA subunits), L-type channels (α1C+α2δ+β1b cDNA subunits) and P/Q-type channels (α1A+α2δ+β1b cDNA subunits) were transiently expressed in HEK 293 cells. Briefly, cells were cultured in Dulbecco's modified eagle medium (DMEM) supplemented with 10% fetal bovine serum, 200 U/ml penicillin and 0.2 mg/ml streptomycin at 37 with 5% CO2. At 85% confluency cells were split with 0.25% trypsin/1 mM EDTA and plated at 10% confluency on glass coverslips. At 12 hours the medium was replaced and the cells transiently transfected using a standard calcium phosphate protocol and the appropriate calcium channel cDNA's. Fresh DMEM was supplied and the cells transferred to 28° C./5% CO2. Cells were incubated for 1 to 2 days prior to whole cell recording.
Whole cell patch clamp experiments were performed using an Axopatch 200B amplifier (Axon Instruments, Burlingame, Calif.) linked to a personal computer equipped with pCLAMP software. The external and internal recording solutions contained, respectively, 5 mM BaCl2, 10 mM MgCl2, 10 mM HEPES, 40 mM TEACl, 10 mM glucose, 87.5 mM CsCl (pH 7.2) and 108 mM CsMS, 4 mM MgCl2, 9 mM EGTA, 9 mM HEPES (pH 7.2). Currents were typically elicited from a holding potential of −80 mV to +10 mV using Clampex software (Axon Instruments). Typically, currents were first elicited with low frequency stimulation (0.067 Hz) and allowed to stabilize prior to application of the compounds. The compounds were then applied during the low frequency pulse trains for two to three minutes to assess tonic block, and subsequently the pulse frequency was increased to 0.2 Hz to assess frequency dependent block. Data were analyzed using Clampfit (Axon Instruments) and SigmaPlot 4.0 (Jandel Scientific).

[1] = low frequency stimulation 0.067 Hz (tonic block), read-out: IC50 @ 0.067 Hz
[2] = pulse frequency 0.2 Hz (frequency dependent block), read-out: IC50 @ 0.2 Hz

Compound | IC50 [1] | IC50 [2]
O=C(C1CC1C(=O)N1CCN(C(c2ccccc2)c2ccccc2)CC1)N1CCN(C(c2ccccc2)c2ccccc2)CC1 (centres unmarked) [Compound 1] | 0.16 µM | 0.15 µM
O=C(C1CC1C(=O)N1CCN(C(c2ccccc2)c2ccccc2)CC1)N1CCN(c2ccccc2)CC1 (centres unmarked) [Compound 2, (4-benzhydrylpiperazin-1-yl)(2-(4-phenylpiperazine-1-carbonyl)cyclopropyl)methanone] | 0.44 µM | 0.31 µM
CN1CCN(C(=O)C2CC2C(=O)N2CCN(C(c3ccccc3)c3ccccc3)CC2)CC1 (centres unmarked) [Compound 3, (4-benzhydrylpiperazin-1-yl)(2-(4-methylpiperazine-1-carbonyl)cyclopropyl)methanone] | 2.5 µM | 1.5 µM
O=C(C1CC1C(=O)N1CCN(C(c2ccccc2)c2ccccc2)CC1)N1CCC(N2CCOCC2)CC1 (centres unmarked) [Compound 4, (4-benzhydrylpiperazin-1-yl)(2-(4-morpholinopiperadine-1-carbonyl)cyclopropyl)methanone] | > 5.83 µM | > 3.95 µM
O=C(Nc1ccccc1)C1CC1C(=O)N1CCN(C(c2ccccc2)c2ccccc2)CC1 (centres unmarked) [Compound 6, 2-(4-benzhydrylpiperazine-1-carbonyl)-N-phenylcyclopropanecarboxamide] | 3.2 µM | 1.9 µM
COCCN1CCN(C(=O)C2CC2C(=O)N2CCN(C(c3ccccc3)c3ccccc3)CC2)CC1 (centres unmarked) [Compound 7] | 2 µM | 1.5 µM
O=C(C1CC1C(=O)N1CCN(C(c2ccccc2)c2ccccc2)CC1)N1CCN(c2ccccc2F)CC1 (centres unmarked) [Compound 8, (4-benzhydrylpiperazin-1-yl)(2-(4-(2-fluorophenyl)piperazine-1-carbonyl)cyclopropyl)methanone] | 0.94 µM | 0.53 µM
COc1ccccc1N1CCN(C(=O)C2CC2C(=O)N2CCN(C(c3ccccc3)c3ccccc3)CC2)CC1 (centres unmarked) [Compound 9, (4-benzhydrylpiperazin-1-yl)(2-(4-(2-methoxyphenyl)piperazine-1-carbonyl)cyclopropyl)methanone] | 0.63 µM | 0.43 µM
CC(NC(=O)C1CC1C(=O)N1CCN(C(c2ccccc2)c2ccccc2)CC1)c1ccccc1 (centres unmarked) [Compound 10, 2-(4-benzhydrylpiperazine-1-carbonyl)-N-(1-phenylethyl)cyclopropane carboxamide] | 1.55 µM | 0.97 µM
CC(C)(C)C1CCC(NC(=O)C2CC2C(=O)N2CCN(C(c3ccccc3)c3ccccc3)CC2)CC1 (centres unmarked) [Compound 11, 2-(4-benzhydrylpiperazine-1-carbonyl)-N-(4-tert-butylcyclohexyl)cyclopropane carboxamide] | 0.09 µM | 0.08 µM
CC1CCC(NC(=O)C2CC2C(=O)N2CCN(C(c3ccccc3)c3ccccc3)CC2)CC1 (centres unmarked) [Compound 12, 2-(4-benzhydrylpiperazine-1-carbonyl)-N-(4-methylcyclohexyl)cyclopropane carboxamide] | 0.18 µM | 0.12 µM
CC1CN(C(=O)C2CC2C(=O)N2CCN(C(c3ccccc3)c3ccccc3)CC2)CC(C)N1 (centres unmarked) [Compound 13, (4-benzhydrylpiperazin-1-yl)(2-(3,5-dimethylpiperazine-1-carbonyl)cyclopropyl)methanone] | 0.71 µM | 0.44 µM
CC(C)N(C(=O)C1CC1C(=O)N1CCN(C(c2ccccc2)c2ccccc2)CC1)C(C)C (centres unmarked) [Compound 14, 2-(4-benzhydrylpiperazine-1-carbonyl)-N,N-diisopropylcyclopropane carboxamide] | 1.56 µM | 0.86 µM
CC(C)(C)N1CCN(C(=O)C2CC2C(=O)N2CCN(C(c3ccccc3)c3ccccc3)CC2)CC1 (centres unmarked) [Compound 15, (4-benzhydrylpiperazin-1-yl)(2-(4-tert-butylpiperazine-1-carbonyl)cyclopropyl) methanone] | 8.53 µM | 6.86 µM
CNC1CCN(C(=O)C2CC2C(=O)N2CCN(C(c3ccccc3)c3ccccc3)CC2)CC1 (centres unmarked) [Compound 16, (4-benzhydrylpiperazin-1-yl)(2-(4-(methylamino)piperadine-1-carbonyl)cyclopropyl)methanone] | 12.5 µM | 6.79 µM
CC1CCC(CN2CCN(C(=O)C3CC3C(=O)N3CCN(C(c4ccccc4)c4ccccc4)CC3)CC2)CC1 (centres unmarked) [Compound 18, (4-benzhydrylpiperazin-1-yl)(2-(4-((4-methylcyclohexyl)methyl)piperazine-1-carbonyl)cyclopropyl)methanone] | 0.69 µM | 0.44 µM
